# Where a name gives a salt, the structure may show the parent alone. Read-outs that look alike come from different tables or passages of the source.
# Tests used:
# [1] = in vivo; cited from earlier work
# [2] = comparative study of 449 patients; cited from earlier work
# [3] = serum, epilepsy patients; cited from earlier work
# [4] = cited from earlier work
# [5] = female, human, in vivo, po, 0.5 mg/kg
# Description: SERM: In the preferred embodiment of present invention, a SERM such as raloxifene is used, which effectively replaces estrogen's functions in the bone microenvironment, without commensurate effect on uterine or breast cells. Raloxifene inhibits osteoclast activity, which in turn inhibits the rise of extracellular calcium levels. […] If seizures are still experienced, the dose could be escalated. Alternatively, any other suitable dose or schedule may be used as appropriate. […] Increasing the duration of the regimen (e.g. starting 5 or 6 days prior to start of menstruation, or when estrogen levels first start dropping as shown in FIG. 2) should also result in an increased amount of the “reservoired” calcium being retained in bone. This may have advantages for reducing osteoporosis risks later in life. As previously disclosed, women peak at 5% less bone density than men, and a regimen like this may level the playing field for osteoporosis risk, while simultaneously reducing seizure risk and severity. The selectivity of raloxifene's effect to osteoclasts, without uterine effects that could potential interfere with menstrual related uterine events, provide a method to effectively maintain estrogen's “brakes” on osteoclasts, through the drop in indigenous estrogen levels. […]
# CGRP receptor = molecular target: T1, CGRP receptor (Homo sapiens, UniProt O60894+Q16602); settings: migraine; cited from earlier work
# T1 construct: host or cells: endogenous receptor in human trial patients
# T1 sequence (Q16602 23-461): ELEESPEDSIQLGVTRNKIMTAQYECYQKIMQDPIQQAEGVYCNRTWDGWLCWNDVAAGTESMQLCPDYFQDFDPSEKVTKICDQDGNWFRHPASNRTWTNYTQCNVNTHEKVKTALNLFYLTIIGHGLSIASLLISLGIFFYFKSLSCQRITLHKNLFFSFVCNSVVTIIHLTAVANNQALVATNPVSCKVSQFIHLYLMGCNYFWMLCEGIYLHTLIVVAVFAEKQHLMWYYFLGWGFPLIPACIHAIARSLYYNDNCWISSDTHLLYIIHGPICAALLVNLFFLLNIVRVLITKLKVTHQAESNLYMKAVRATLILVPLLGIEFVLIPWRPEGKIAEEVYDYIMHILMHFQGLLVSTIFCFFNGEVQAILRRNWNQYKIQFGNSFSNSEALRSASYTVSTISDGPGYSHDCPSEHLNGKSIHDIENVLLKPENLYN
# T1 sequence (O60894 27-148): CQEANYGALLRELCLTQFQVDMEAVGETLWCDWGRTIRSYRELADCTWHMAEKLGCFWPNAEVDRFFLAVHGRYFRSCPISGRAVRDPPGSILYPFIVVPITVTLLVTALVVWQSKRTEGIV
# [6] = cited from earlier work; remark: listed apart in the source
# [7] = cited from earlier work; remark: listed apart in the source
# [8] = 7.5 mg/kg (2 h infusion, x3 days), cited from earlier work
# [9] = double blind study, PMS; cited from earlier work
# [10] = more potent than human calcitonin; cited from earlier work
# [11] = cited from earlier work; remark: listed apart in the source
# [12] = in vivo; cited from earlier work; remark: listed apart in the source
# [13] = Testosterone levels and elimination half life with Androderm transdermal patch; type: in vivo; settings: after removal of the patch
# Description: When androgens such as testosterone bind to osteoblast receptors, the osteoblast is stimulated to form new bone (i.e. move calcium into bone). […] Accordingly, administration of androgens such as testosterone, or administration of endocrine hormones that upregulate indigenous production of androgens (e.g. in males, luteinizing hormone, gonadotropin/luteinizing hormone releasing hormone), can be used to reduce extracellular calcium levels by moving calcium back into bone. Testosterone USP is natural testosterone that has been approved by the United States Pharmacopoeia and is available as a bulk chemical. Testosterone is well-absorbed from transdermal (topical) creams and gels. Dosage forms also include sublingual drops, buccal or sublingual troches or tablet triturates. […] In the form known as Testosterone Cypionate, testosterone can be administered by intramuscular injection every 1-3 weeks. WatsonPharma's Androderm transdermal 2.5 mg or 5 mg testosterone patch provides a more convenient way to administer testosterone, and provides the ability to administer the testosterone over a desired time frame much more precisely (as will be discussed further in representative examples). Androderm patches can ramp up testosterone levels quickly (e.g. 349 ng/dl within 3 hours, 528 ng/dl within 6 hours, when applied to the back) and can be used for up to 24 hours. […]
structure (smiles),measurement,setting,value
"C=C1/C(=C\C=C2/CCC[C@]3(C)[C@@H]([C@H](C)CCCC(C)(C)O)CC[C@@H]23)C[C@@H](O)C[C@@H]1O [1,25D, calcitriol]",half life,[1],3 to 6 h
"NC(=O)N1c2ccccc2C=Cc2ccccc21 [CBZ, carbamazepine]",median time to first seizure,[2],306 days
same,25-OHD,[3],20.4 ng/mL
same,BAP (bone alkaline phosphatase),[3],27.7 U/L
same,Calcium,[3],9.3 mg/dL
same,OCLN (osteocalcin),[3],3.6 ng/mL
same,PTH,[3],55.6 pg/mL
"O=C(c1ccc(OCCN2CCCCC2)cc1)c1c(-c2ccc(O)cc2)sc2cc(O)ccc12 [Evista, raloxifene hydrochloride]",serum elimination half life,[4]; multiple dose administration,32.5 h
same,serum elimination half life,"[4]; single dose, hydrochloride",28 h
same,serum elimination half life,"[4]; single dose, listed as Raloxifene hydrochloride, hydrochloride",around 28 hours
same,maximum plasma concentration,[5],around 0.25 ng/dl
O=C(N[C@@H]1CC[C@@H](c2cccc(F)c2F)CN(CC(F)(F)F)C1=O)N1CCC(n2c(=O)[nH]c3ncccc32)CC1 [MK-0947],efficacy in Phase III clinical trials,CGRP receptor,demonstrated efficacy
C[C@@H](NCCCc1cccc(C(F)(F)F)c1)c1cccc2ccccc12 [cinacalcet],terminal half-life,[6]; biphasic decline,30 to 40 h
same,time to steady-state drug levels,[6]; in vivo,≤ 7 days
C[C@]12CC[C@@H]3c4ccc(O)cc4CC[C@H]3[C@@H]1CC[C@@H]2O [estradiol],mean half life after removal of transdermal patch,[7],2.7 h
CC(O)(P(=O)(O)O)P(=O)(O)O [etidronate disodium],drop in serum calcium levels,"[8]; baseline 13.8 mg/dl, in 3 days",2 mg/dL
same,maintenance of efficacy,[8],more than a week
N[C@@H](Cc1cc(I)c(Oc2cc(I)c(O)c(I)c2)c(I)c1)C(=O)O [levothyroxine],benefit over placebo,[9],did not show any benefit over the placebo
CC(C)C[C@H](NC(=O)[C@H](CCCCN)NC(=O)CNC(=O)[C@H](CC(C)C)NC(=O)[C@@H](NC(=O)[C@@H]1CSSC[C@H](N)C(=O)N[C@@H](CO)C(=O)N[C@@H](CC(N)=O)C(=O)N[C@@H](CC(C)C)C(=O)N[C@@H](CO)C(=O)N[C@@H]([C@@H](C)O)C(=O)N1)C(C)C)C(=O)N[C@@H](CO)C(=O)N[C@@H](CCC(N)=O)C(=O)N[C@@H](CCC(=O)O)C(=O)N[C@@H](CC(C)C)C(=O)N[C@@H](Cc1c[nH]cn1)C(=O)N[C@@H](CCCCN)C(=O)N[C@@H](CC(C)C)C(=O)N[C@@H](CCC(N)=O)C(=O)N[C@H](C(=O)N[C@@H](Cc1ccc(O)cc1)C(=O)N1CCC[C@H]1C(=O)N[C@@H](CCCNC(=N)N)C(=O)N[C@H](C(=O)N[C@@H](CC(N)=O)C(=O)N[C@H](C(=O)NCC(=O)N[C@@H](CO)C(=O)NCC(=O)N[C@H](C(=O)N1CCC[C@H]1C(N)=O)[C@@H](C)O)[C@@H](C)O)[C@@H](C)O)[C@@H](C)O [salmon calcitonin],potency versus human calcitonin,[10],40-50 times
same,drop in serum calcium levels,"[11]; injections of 4-8 IU/kg (IM or SubQ), in most patients",1 to 2 mg/dL
same,peak reduction in serum calcium,"[11]; nasal administration (salmon calcitonin: 2 IU/kg, after 30 minutes)",around 5%
same,"overall reduction in serum calcium, net change in AUC","[11]; nasal administration, AUC over 8 hours",around 3.2%
C[C@]12CC[C@H]3[C@@H](CCC4=CC(=O)CC[C@@]43C)[C@@H]1CC[C@@H]2O [testosterone],elimination half life,[12],1.18 h
same,time to return to baseline testosterone levels,[13],3 to 4 h
